These results are taken from patent publication US20180230166A1 (Merck Sharp & Dohme Corp., priority 2015, published 2018).

Each structure is given as a SMILES string.

In series [1] the target is T1, endogenous CETP from serum (Homo sapiens, UniProt P11597).
T1 construct: yielding a concentration of approximately 15 nM endogenous CETP in the assay; from tissue; host or cells: human serum (95% of the assay volume)
T1 sequence (P11597 18-493): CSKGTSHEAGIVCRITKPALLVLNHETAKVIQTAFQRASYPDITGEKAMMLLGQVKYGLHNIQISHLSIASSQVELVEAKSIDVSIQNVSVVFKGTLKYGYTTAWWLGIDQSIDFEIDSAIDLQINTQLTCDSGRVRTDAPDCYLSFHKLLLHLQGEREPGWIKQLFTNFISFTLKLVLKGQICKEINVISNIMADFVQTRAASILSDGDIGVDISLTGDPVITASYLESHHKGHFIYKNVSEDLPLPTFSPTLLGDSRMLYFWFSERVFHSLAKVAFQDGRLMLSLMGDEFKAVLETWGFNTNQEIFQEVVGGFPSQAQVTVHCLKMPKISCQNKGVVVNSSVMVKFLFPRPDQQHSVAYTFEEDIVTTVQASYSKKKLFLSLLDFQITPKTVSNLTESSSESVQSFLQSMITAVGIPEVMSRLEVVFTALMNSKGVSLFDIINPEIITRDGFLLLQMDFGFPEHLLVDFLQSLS
Description: RTA assay in 95% human serum (95% RTA), CETP-catalyzed CE and TG transfer. The series is classed as biochemical. As to conditions: RTA assay in 95% human serum; read-out: IC50. How it is done:
Reagents and sources are: [3H] cholesteryl oleate (GE #TRK.886), [3H] Triolein (Perkin-Elmer NET-431), Butylated hydroxyl toluene (Aldrich, #D4740-4), DOPC (Sigma, #P6354), Sodium Bromide (Fisher scientific #S255-500), PEG 8000 (Fisher, #BP233-1), and human HDL (Intracel Corp #RP-036).
Both assays measure the transfer of [3H] cholesteryl oleate or [3H] triolein from exogenous LDL to HDL.
Radiolabeled donor particles are generated by first combining 100 μl of 200 μM butylated hydroxyl toluene in CHCl3, 216 μL of 21.57 mM DOPC in EtOH, and either 500 μCi [3H]-triolein (Perkin Elmer #NET-431) or 500 μCi [3H]-cholesteryl oleate (GE #TRK886) in a glass tube. Reagents are mixed, dried under nitrogen, and then resuspended in 2 mL of 50 mM Tris, 27 μM EDTA at pH 7.4. After a brief vortex, the solution is sonicated until clear and mixed with 20 mL of fresh human serum. The mixture is incubated overnight at 37° C. The [3H] labeled LDL substrate is separated at 1.063 g/ml density by sequential ultracentrifugal flotation in NaBr according to the method of Havel, Eder, et al., 1955, and Chapman, Goldstein, et al., 1981. Once isolated the particles are dialyzed 3× in CETP buffer (50 mM Tris, pH 7.4, 100 mM NaCl, 1 mM EDTA). Human HDL is purchased from Intracel and used as the acceptor particles.
Transfer assays are performed in a 96-well v-bottom polypropylene plate. […] 1 μL of each test compound diluted in DMSO is added to 47 μL of assay cocktail per well and incubated at 37° C. for 1 hour. To initiate the transfer reaction, 2 μL radiolabeled LDL is added. After an additional 60 min of incubation at 37° C., the transfer action is terminated by precipitation of LDL with an equal volume of 20% W/V PEG 8000. The plates are centrifuged at 2000 rpm for 30 minutes at 4° C. A 40 μL aliquot of the HDL-containing supernatant is transferred to a Packard Optiplate™ with 200 μL of MicroScint™ 20. After mixing, plates are counted by liquid scintillation. Counts present in the supernatant for blanks (wells containing only HDL acceptor, CETP buffer and DMSO) are subtracted from those containing test compounds and used to correct for non-specific transfer.
For the transfer assay using endogenous CETP from serum (95% RTA), the same procedure is used except that human serum is added such that a final concentration of serum of 95% of the total assay volume is achieved, yielding a concentration of approximately 15 nM endogenous CETP in the assay. This is then combined with HDL and CETP buffer and the reaction proceeds as above and is terminated as described.
Comparison of the counts of samples with inhibitors to an uninhibited (DMSO only) positive control yield a percent inhibition. A plot of percent inhibition vs. log of inhibitor concentration, fit to a Sigmoidal 4 parameter equation is used to calculate IC50.
Starting materials are commercially available or are made using known procedures or as shown below. The examples may be synthesized using the general schemes provided below. The data reported for the examples below were obtained using the RTA assay in 95% human serum. […] When compounds of Formula I are mentioned herein, such compounds include compounds defined generically by Formula I and also the specific examples disclosed herein.

For series [2] the following is noted: cited from earlier work.
For series [3] the following is noted: Phase III outcomes trial, cited from earlier work.
The conditions of series [4]: torcetrapib and atorvastatin concomitantly, compared with atorvastatin alone; cited from earlier work.
The mark [5] stands for this setting: patients on anacetrapib with baseline statin therapy, compared with patients treated with just a statin.

The IC50 is the concentration at which inhibition is half-maximal. As for `COc1ncc(-c2ccc(C(=O)O)cc2C)cc1-c1ccc(C(F)(F)F)cc1[C@@H]1CC[C@H]2[C@@H](c3ccnc(C(F)(F)F)c3)SC(=O)N12` [Example 10, 4-{6-methoxy-5-[2-{(1R,5S,7aS)-3-oxo-1-[2-(trifluoromethyl)pyridin-4-yl]tetrahydro-1H-pyrrolo[1,2-c][1,3]thiazol-5-yl}-4-(trifluoromethyl)phenyl]pyridin-3-yl}-3-methylbenzoic acid], the IC50 in series [1] came out at 3.94 µM. Take `COc1cc(F)c(C(C)C)cc1-c1ccc(C(F)(F)F)cc1[C@@H]1CC[C@H]2[C@@H](c3ccnc(C(F)(F)F)c3)SC(=O)N12` [Example 11, (1R,5S,7aS)-5-[4′-fluoro-2′-methoxy-5′-(1-methylethyl)-4-(trifluoromethyl)biphenyl-2-yl]-1-[2-(trifluoromethyl)pyridin-4-yl]tetrahydro-1H-pyrrolo[1,2-c][1,3]thiazol-3-one]: the IC50 in series [1] was 2.52 µM.

Take `COc1ccc([C@H]2CC[C@H](C(=O)O)CC2)cc1-c1ccc(C(F)(F)F)cc1[C@@H]1CC[C@H]2[C@@H](c3cc(F)cc(C(F)(F)F)c3)SC(=O)N12` [Example 12, trans-4-[2′-{(1R,5S,7aS)-1-[3-fluoro-5-(trifluoromethyl)phenyl]-3-oxotetrahydro-1H-pyrrolo[1,2-c][1,3]thiazol-5-yl}-6-methoxy-4′-(trifluoromethyl)biphenyl-3-yl]cyclohexanecarboxylic acid]: the IC50 in series [1] was found to be 1.5 µM. In the case of `COc1ncc(-c2c(C)cc(C(=O)O)cc2C)cc1-c1ccc(C(F)(F)F)cc1[C@@H]1CC[C@H]2[C@@H](c3cc(C(F)(F)F)cc(C(F)(F)F)c3)CC(=O)N12` [Example 14, 4-{5-[2-{(3S,7R,7aS)-7-[3,5-bis(trifluoromethyl)phenyl]-5-oxohexahydro-1H-pyrrolizin-3-yl}-4-(trifluoromethyl)phenyl]-6-methoxypyridin-3-yl}-3,5-dimethylbenzoic acid], the IC50 in series [1] amounted to 0.321 µM. On the same count and under the same terms, the value for `COc1ncc(-c2ccc(C(=O)O)cc2C)cc1-c1ccc(C(F)(F)F)cc1[C@@H]1CC[C@H]2[C@@H](c3cc(C(F)(F)F)cc(C(F)(F)F)c3)CC(=O)N12` [Example 16, 4-{5-[2-{(3S,7R,7aS)-7-[3,5-bis(trifluoromethyl)phenyl]-5-oxohexahydro-1H-pyrrolizin-3-yl}-4-(trifluoromethyl)phenyl]-6-methoxypyridin-3-yl}-3-methylbenzoic acid] was 2.94 µM. In the case of `COc1ncc(-c2c(C)cc(C(=O)O)cc2C)cc1-c1ccc(C(F)(F)F)cc1[C@@H]1CC[C@H]2[C@@H](c3cc(F)cc(C(F)(F)F)c3)CC(=O)N12` [Example 17, 4-{5-[2-{(3S,7R,7aS)-7-[3-fluoro-5-(trifluoromethyl)phenyl]-5-oxohexahydro-1H-pyrrolizin-3-yl}-4-(trifluoromethyl)phenyl]-6-methoxypyridin-3-yl}-3,5-dimethylbenzoic acid], in series [1], the IC50 turned out to be 0.328 µM. As for `COc1cc(F)c(C(C)C)cc1-c1ccc(C(F)(F)F)cc1[C@@H]1CC[C@H]2[C@@H](c3cc(F)cc(C(F)(F)F)c3)CC(=O)N12` [Example 18, (1R,5S,7aS)-5-[4′-fluoro-2′-methoxy-5′-(1-methylethyl)-4-(trifluoromethyl)biphenyl-2-yl]-1-[3-fluoro-5-(trifluoromethyl)phenyl]hexahydro-3H-pyrrolizin-3-one], in series [1], the IC50 amounted to 2.69 µM. In the case of `COc1ncc(-c2ccc(C(=O)O)cc2C)cc1-c1ccc(C(F)(F)F)cc1[C@@H]1CC[C@H]2[C@@H](c3cc(F)cc(C(F)(F)F)c3)CC(=O)N12` [Example 19, 4-{5-[2-{(3S,7R,7aS)-7-[3-fluoro-5-(trifluoromethyl)phenyl]-5-oxohexahydro-1H-pyrrolizin-3-yl}-4-(trifluoromethyl)phenyl]-6-methoxypyridin-3-yl}-3-methylbenzoic acid], in series [1], the half-inhibitory concentration (IC50) was 2.88 µM. Take `COc1ccc(-c2ccc(C(=O)O)cc2C)cc1-c1ccc(C(F)(F)F)cc1[C@@H]1CC[C@H]2[C@@H](c3cc(F)cc(C(F)(F)F)c3)CC(=O)N12` [Example 20]: in series [1], the IC50 is 4.73 µM. Regarding `COc1ncc(-c2c(C)cc(C(=O)O)cc2C)cc1-c1ccc(C(F)(F)F)cc1[C@@H]1CC[C@H]2[C@@H](c3ccnc(C(F)(F)F)c3)CC(=O)N12` [Example 21, 4-{6-methoxy-5-[2-{(3S,7R,7aS)-5-oxo-7-[2-(trifluoromethyl)pyridin-4-yl]hexahydro-1H-pyrrolizin-3-yl}-4-(trifluoromethyl)phenyl]pyridin-3-yl}-3,5-dimethylbenzoic acid], the IC50 in series [1] came to 2.9 µM.

On to `COc1cc(F)c(C(C)C)cc1-c1ccc(C(F)(F)F)cc1CN1C(=O)O[C@H](c2cc(C(F)(F)F)cc(C(F)(F)F)c2)[C@@H]1C` [anacetrapib], for which, in series [2] (setting [5]), the “decrease of LDL-C” value was 40% and the “increase of HDL-C” value is recorded as 138%. Also, in series [2] (patients treated with anacetrapib, DEFINE trial), the increase in mortality result is listed as “unlikely”. As to `CCC(CC)CC1(C(=O)Nc2ccccc2SC(=O)C(C)C)CCCCC1` [dalcetrapib], the “clinical benefit (interim data)” value in series [3] (terminated early) is “did not show a clinical benefit”. Further, in series [3], the safety issues result is listed as “no safety issues detected”. As for `CCOC(=O)N1c2ccc(C(F)(F)F)cc2[C@@H](N(Cc2cc(C(F)(F)F)cc(C(F)(F)F)c2)C(=O)OC)C[C@H]1CC` [torcetrapib], in series [4], the incidence of mortality result was “higher incidence of mortality”.
